Marks after values point to notes of the source that are not given here.
Tests used:
Assay type in all cases: in vivo
Kunming mice [1] = experiment: Influence on autonomic activity of normal mice (ZIL-2 mice autonomic activity meter, counts within 10 min); details: intragastric, x ± s, n = 10; for Times of activities in 1 h after drug administration/10 min: 1 h after administration; for Times of activities in 2 h after drug administration/10 min: 2 h after administration; for Times of activities in 24 h after drug administration/10 min: 24 h after administration
Procedure, shortened: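 Activity counts during a 10-min window were taken at 1, 2 and 24 h after dosing in groups of 10 mixed-sex Kunming mice. Compounds were given in 0.5% CMC-Na at 25, 50 or 100 mg/kg. Statistics used Levene's homogeneity test, ANOVA and Dunnett's multiple comparisons.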

Kunming mice [2] = experiment: Influence on hypnosis effect with pentobarbital sodium doses below the threshold (25 mg/kg i.p.); details: pentobarbital sodium 25 mg/kg i.p. 60 min later, sleep observed in 30 min, n = 10
Procedure, shortened: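 Percentage of mice sleeping within 30 min after subthreshold pentobarbital sodium (25 mg/kg i.p.), defined by loss of righting reflex over 1 min, analysed by χ2. Compound in 0.5% CMC-Na given intragastrically at 25/50/100 mg/kg 60 min before; groups of 10 Kunming mice, both sexes.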

Kunming mice [3] = experiment: Influence on hypnosis effect with pentobarbital sodium doses at the threshold (50 mg/kg i.p.); details: pentobarbital sodium 50 mg/kg i.p. 60 min later, x ± s, n = 10
Procedure, shortened: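 Pentobarbital sodium (0.3%, 50 mg/kg i.p.) injected 60 min after a single intragastric dose (25, 50, 100 mg/kg, 0.5% CMC-Na vehicle) in Kunming mice, 10 per group, sexes balanced. Onset and length of sleep (righting reflex lost over 1 min) analysed by ANOVA; sleeping incidence by χ2 test.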

[4] = test drug 25 mg/kg intragastric single dose
[5] = test drug 50 mg/kg intragastric single dose
[6] = test drug 100 mg/kg intragastric single dose
[7] = 25 mg/kg intragastric single dose
[8] = 50 mg/kg intragastric single dose
[9] = 100 mg/kg intragastric single dose

| SMILES | Times of activities in 1 h after drug administration/10 min (Kunming mice [1]; 25 mg/kg) | Times of activities in 2 h after drug administration/10 min (Kunming mice [1]; 25 mg/kg) | Times of activities in 24 h after drug administration/10 min (Kunming mice [1]; 25 mg/kg) | Times of activities in 1 h after drug administration/10 min (Kunming mice [1]; 50 mg/kg) | Times of activities in 2 h after drug administration/10 min (Kunming mice [1]; 50 mg/kg) | Times of activities in 24 h after drug administration/10 min (Kunming mice [1]; 50 mg/kg) | Times of activities in 1 h after drug administration/10 min (Kunming mice [1]; 100 mg/kg) | Times of activities in 2 h after drug administration/10 min (Kunming mice [1]; 100 mg/kg) | Times of activities in 24 h after drug administration/10 min (Kunming mice [1]; 100 mg/kg) | Number of sleeping animals (Kunming mice [2]; [4]) | rate of sleeping (%) (Kunming mice [2]; [4]) | Number of sleeping animals (Kunming mice [2]; [5]) | rate of sleeping (%) (Kunming mice [2]; [5]) | Number of sleeping animals (Kunming mice [2]; [6]) | rate of sleeping (%) (Kunming mice [2]; [6]) | duration of sleep (Kunming mice [3]; [7]) | time to sleep (Kunming mice [3]; [7]) | duration of sleep (Kunming mice [3]; [8]) | time to sleep (Kunming mice [3]; [8]) | duration of sleep (Kunming mice [3]; [9]) | other results |
| --- | --- | --- | --- | --- | --- | --- | --- | --- | --- | --- | --- | --- | --- | --- | --- | --- | --- | --- | --- | --- | --- |
| CC=Cc1cc(-c2cc(=O)c3c(CCCCC)cc(C(=O)O)cc3o2)cc(C(=O)O)c1C#N [Example 26] | 310.7 ± 59.5 /10 min | 279.0 ± 32.2 /10 min | 313.5 ± 68.8 /10 min | 284.7 ± 46.1 /10 min | 267.1 ± 43.5 /10 min | 314.1 ± 82.3 /10 min | 263.6 ± 42.4 /10 min | 245.6 ± 40.8 /10 min | 322.6 ± 61.2 /10 min | 4 | 40* % | 5 | 50** % | 7 | 70** % | 23.01 ± 25.99 min | 5.38 ± 2.22 min | 28.69 ± 26.56 min | 5.12 ± 2.32 min | 65.28 ± 46.29 min | time to sleep (Kunming mice [3]; [9]): 3.24 ± 1.16 min |
| N#Cc1cc(-c2cc(=O)c3c(N)cc(F)cc3o2)ccc1O [Example 37] | 321.4 ± 62.4 /10 min | 288.0 ± 38.9 /10 min | 335.3 ± 65.2 /10 min | 279.7 ± 46.3 /10 min | 259.5 ± 46.5 /10 min | 333.8 ± 87.8 /10 min | 277.3 ± 45.7 /10 min | 222.8 ± 43.2 /10 min | 317.8 ± 62.3 /10 min | 3 | 30% | 6 | 60** % | 7 | 70** % | 30.27 ± 22.71 min | 4.99 ± 1.97 min | 40.03 ± 20.58 min | 3.98 ± 1.46 min | 57.51 ± 25.63 min | time to sleep (Kunming mice [3]; [9]): 3.88 ± 1.43 min |
| COc1ccc(C2CC(=O)c3c(OC)c(OC)c(OC)c(OC)c3O2)cc1 (stereo not drawn) [Example 47, 5,6,7,8,4′-penta methoxyl-flavanone] | 328.6 ± 49.7 /10 min | 312.7 ± 56.1 /10 min | 315.1 ± 85.4 /10 min | 280.7 ± 61.3 /10 min | 278.6 ± 47.5 /10 min | 310.5 ± 75.3 /10 min | 237.2 ± 35.6 /10 min | 250.3 ± 46.2 /10 min | 307.1 ± 82.3 /10 min | 4 | 40* % | 7 | 70** % | 8 | 80*** % | 39.86 ± 16.75 min | 4.45 ± 1.43 min | 43.26 ± 20.65 min | 3.72 ± 1.65 min | 59.78 ± 19.65 min | time to sleep (Kunming mice [3]; [9]): 3.18 ± 1.54 min |
| COc1ccc(-c2cc(=O)c3c(O)cc(OC)c(OC)c3o2)c(OC)c1OC [Example 9, 5-hydroxyl-7,8,2′,3′,4′-penta methoxyl-flavone] | 258.4 ± 60.2 /10 min | 241.1 ± 34.1 /10 min | 314.2 ± 67.9 /10 min | 183.5 ± 45.9 /10 min | 194.3 ± 45.1 /10 min | 317.2 ± 80.9 /10 min | 129.0 ± 40.2 /10 min | 126.3 ± 39.8 /10 min | 323.5 ± 62.4 /10 min | 6 | 60** % | 7 | 70** % | 8 | 80*** % | 49.14 ± 16.71 min | 3.31 ± 1.81 min | 72.31 ± 21.42 min | 2.91 ± 1.52 min | 85.16 ± 21.97 min | time to sleep (Kunming mice [3]; [9]): 2.12 ± 1.12 min |
| COc1ccc(-c2cc(=O)c3c(OC)c(OC)c(OC)c(OC)c3o2)cc1OC [Example 14, 5,6,7,8,3′,4′-hexamethoxyl-flavone] | 289.9 ± 42.3 /10 min | 281.1 ± 41.6 /10 min | 313.2 ± 74.4 /10 min | 178.6 ± 40.2 /10 min | 183.3 ± 51.3 /10 min | 324.7 ± 79.6 /10 min | 159.1 ± 48.1 /10 min | 133.9 ± 49.7 /10 min | 322.6 ± 61.2 /10 min | 4 | 40* % | 6 | 60** % | 7 | 70** % | 34.12 ± 28.26 min | 4.78 ± 1.81 min | 57.34 ± 19.33 min | 4.25 ± 1.55 min | 60.26 ± 32.36 min | time to sleep (Kunming mice [3]; [9]): 3.93 ± 1.57 min |

Source: patent US9669003B2, “Use of flavone and flavanone derivatives in preparation of sedative and hypnotic drugs” (priority 2012, dated 2017)
